Reference: ChEMBL document CHEMBL1125964, “Synthesis and biological activivity of juvenele hormone analogues (JHA) for Trypanosoma cruzi” (1991)

What was measured:
Format in all cases: functional
Trypanosoma cruzi [1] = experiment: Compound was evaluated for its percent inhibition of thymidine incorporation in Trypanosoma cruzi without killing the cells at 25 degree Celsius and 50 uM/L
Trypanosoma cruzi [2] = experiment: Compound was evaluated for its percent inhibition of growth of Trypanosoma cruzi at of 50 uM/L
Trypanosoma cruzi [3] = experiment: Compound was evaluated for its percent inhibition of growth of Trypanosoma cruzi at 100 uM/L
Trypanosoma cruzi [4] = experiment: Compound was evaluated for its percent inhibition of thymidine incorporation in Trypanosoma cruzi without killing the cells at 25 degree Celsius and 100 uM/L
Trypanosoma cruzi [5] = experiment: Compound was evaluated for its percent inhibition for thymidine incorporation in Trypanosoma cruzi without killing the cells at 25 degree Celsius and 17 uM/L

| SMILES | Inhibition (Trypanosoma cruzi [1]) | inhibition at 50 µM (Trypanosoma cruzi [2]) | inhibition at 100 µM (Trypanosoma cruzi [3]) | Inhibition (Trypanosoma cruzi [4]) | Inhibition (Trypanosoma cruzi [5]) |
| --- | --- | --- | --- | --- | --- |
| CCSC(=O)OC/C=C(\C)CC/C=C(\C)CCC=C(C)C | 57.9% | 69.3% | 94.2% | 72.6% |  |
| CCSC(=O)OC/C=C(\C)CC/C=C(\C)CCC1OC1(C)C (stereo unspecified) | 80.7% | 90.7% | 99% | 95.6% |  |
| c1ccc(Oc2ccc(OCCOC3CCCCO3)cc2)cc1 (stereo unspecified) | 40.8% | 57% | 90.6% | 86.2% |  |
| COC(C)(C)CCCC(C)C/C=C/C(C)=C/C(=O)OC(C)C (stereo unspecified) | 70.5% | 60% | 92.5% | 86.5% |  |
| CC(C)(C)OC(=O)CC(O)COc1ccc(Oc2ccccc2)cc1 (stereo unspecified) | 70.6% | 67.2% | 98.8% | 93.5% |  |
| C=CCOc1ccc(Oc2ccccc2)cc1 | 60.9% | 80.8% | 95.4% | 83.9% |  |
| CC(C)=CCC/C(C)=C/CCCOC(=O)OCC(C)C | 88.4% | 57.3% | 94% | 100.1% | 50.6% |
| CCSC(=O)OC(C)CC/C=C(\C)CC/C=C(/C)CC (stereo unspecified) | 65.3% | 50.7% | 79.4% | 75.2% |  |
| COC(=O)OCCC/C=C(\C)CCC=C(C)C | 66.3% | 41.3% | 56% | 95.3% |  |
| CC/C(C)=C\CC/C(C)=C/CCC(C)OC(=O)OCC(C)C (stereo unspecified) | 62.8% | 56.6% | 68% | 70.8% |  |
| COC(=O)OC/C=C(\C)CC/C=C(\C)CCC1OC1(C)C (stereo unspecified) | 25.7% | 44.8% | 62.8% | 46.3% |  |
| CC(C)=CCC/C(C)=C/CCC(C)OC(=O)OCC(C)C (stereo unspecified) | 73.3% | 70.8% | 89.6% | 95.8% |  |
| C/C(=C\CCC(C)OC(=O)OCC(C)C)CCC1OC1(C)C (stereo unspecified) | 50.8% | 33.4% | 68% | 70% |  |
| COC(=O)OC(C)CC/C=C(\C)CCC=C(C)C (stereo unspecified) | 75.6% | 51% | 97.5% | 91.6% |  |
| C/C=C\CC/C(C)=C/CCC(C)OC(=O)OCC(C)C (stereo unspecified) | 70.1% | 47.6% | 75.4% | 89.6% |  |
